The nature of data set [1]: bidirectional transport across the MDCK-pHaMDR cell monolayer (in vitro BBB model). The conditions noted are these: dog, MDCK-MDR1, pH 7.35. Here is the method: (§1) The MDCK-pHaMDR cells were seeded at a density of about 8 × 10^4 cells/mL on the 12-well Transwell® plates. After an eight-day culture, the cells reached confluence and differentiation for the transport study.
(§2) On the 8th day, the monolayers were washed twice and shaken at 55 rpm for 30 min with HBSS at 37 °C. Then, the TEER was measured with an epithelial volt-ohm meter (EVOM; World Precision Instrument) to examine the monolayer's integrity. Only those with the TEER values above 1000 Ω·cm^2 were qualified for the transport.
(§3) The bidirectional transport assay was initiated by adding a test compound to either the apical (0.5 mL for apical to basolateral transport, A→B) or the basolateral (1.5 mL for basolateral to apical transport, B→A) side. After shaking at 55 rpm and 37 °C for a certain time, samples (A→B: 400 µL from the apical side and 1300 µL from the basolateral side; B→A: 450 µL from the apical side and 450 µL from the basolateral side) were collected, immediately frozen, lyophilized and preserved below –20 °C before analysis.
(§4) Papp of each compound was calculated based on the following equation: (1) Papp = (ΔQ/Δt)/(AC0) (cm/s) where ΔQ/Δt is the appearance rate of the test compound at the receiver side (µmol/s), C0 is the initial concentration of the test compound at the donor side (µM), and A is the membrane surface area (cm^2). All of the experiments were conducted in triplicate.

The subject of data set [2] is P-glycoprotein (P-gp). Kind of data set: in vitro. The settings on record: dog.
The test system of data set [3] is MDCK-pHaMDR cell monolayer. In words: bidirectional transport across the MDCK-pHaMDR cell monolayer (in vitro BBB model). The settings on record: classed by Papp against caffeine and atenolol. Here is the method:
as §1, §2, §3, §4

Consider `COc1cc([C@H]2c3cc(O)c(OC)cc3C[C@@H](C)[C@@H]2C)ccc1O` [Compound 11, guaiacin], for which, in data set [1], the apical-to-basolateral permeability (Papp A→B) at 90 min, 100 µM is less than 0.075 ×10⁻⁶ cm/s; the Papp B→A at 90 min, 100 µM is less than 0.073 ×10⁻⁶ cm/s; the apparent permeability (Papp) at 90 min, 100 µM was not above 0.01 ×10⁻⁶ cm/s.
With `C/C=C/c1cc(OC)c2c(c1)[C@@H](C)[C@H](c1ccc(O)c(OC)c1)O2` (racemic) [Compound 1, Dehydrodiisoeugenol], in data set [1], the Papp A→B at 90 min, 100 µM amounted to 2.43 ± 0.32 ×10⁻⁶ cm/s; the basolateral-to-apical permeability (Papp B→A) at 90 min, 100 µM came out at 1.82 ± 0.18 ×10⁻⁶ cm/s; the apparent permeability (Papp) at 90 min, 100 µM is approximately 1 ×10⁻⁶ cm/s.
In data set [1], `O=C(CCCCCCCCc1ccccc1)c1c(O)cccc1O` [Compound 13, malabaricone A] returned a Papp A→B at 90 min, 100 µM of less than 0.038 ×10⁻⁶ cm/s; a Papp B→A at 90 min, 100 µM of less than 0.037 ×10⁻⁶ cm/s; an apparent permeability (Papp) at 90 min, 100 µM not above 0.01 ×10⁻⁶ cm/s.
As for `COC(=O)c1ccccc1-c1c2ccc(=N)cc-2oc2cc(N)ccc12` [rhodamin 123, rhodamine 123], the Papp B→A was determined as 3.31 ± 0.12 ×10⁻⁶ cm/s in data set [2] (MDCK-MDR1) and 1.52 ± 0.08 ×10⁻⁶ cm/s in data set [2] (MDCK-MDR1, with verapamil 100 µM).
`COc1cc(CC(C)C(C)Cc2ccc(O)c(OC)c2)ccc1O` (stereo not drawn) [Compound 10, dihydroguaiaretic acid]: in data set [1], the Papp A→B at 90 min, 100 µM is less than 0.145 ×10⁻⁶ cm/s; the Papp B→A at 90 min, 100 µM is less than 0.14 ×10⁻⁶ cm/s; the apparent permeability (Papp) at 90 min, 100 µM was approximately 0.1 ×10⁻⁶ cm/s.
In the same order, the values of `O=C(CCCCCCCCc1ccc(O)c(O)c1)c1c(O)cccc1O` [Compound 15, malabaricone C] are 0.64 ± 0.07 ×10⁻⁶ cm/s, 0.63 ± 0.04 ×10⁻⁶ cm/s and approximately 0.1 ×10⁻⁶ cm/s.
In the same order, the values of `COc1cc2c(cc1O)[C@H](c1ccc3c(c1)OCO3)[C@@H](C)[C@H](C)C2` [Compound 12, otobaphenol] are less than 0.073 ×10⁻⁶ cm/s, less than 0.07 ×10⁻⁶ cm/s and not above 0.01 ×10⁻⁶ cm/s.
In data set [1], `COc1cc([C@H]2O[C@@H](c3ccc(O)c(OC)c3)[C@H](C)[C@@H]2C)ccc1O` [Compound 9, nectandrin B] showed an apparent permeability from apical to basolateral (Papp A→B) at 90 min, 100 µM of 10.4 ± 1.49 ×10⁻⁶ cm/s and an apparent permeability from basolateral to apical (Papp B→A) at 90 min, 100 µM of 15 ± 1.27 ×10⁻⁶ cm/s.
Consider `Cn1c(=O)c2c(ncn2C)n(C)c1=O` [caffeine, reference compound], for which, in data set [1], the apparent permeability (Papp) was 24.4 ± 1.1 ×10⁻⁶ cm/s.
In data set [1], `COc1cc([C@H]2O[C@@H](c3ccc(O)c(OC)c3)[C@@H](C)[C@@H]2C)ccc1O` [Compound 8, verrucosin] registered a Papp A→B at 90 min, 100 µM of 10.9 ± 0.32 ×10⁻⁶ cm/s and a Papp B→A at 90 min, 100 µM of 20.4 ± 0.97 ×10⁻⁶ cm/s.
In data set [1], `C/C=C/c1cc(OC)c2c(c1)[C@@H](C)[C@H](c1cc(OC)c3c(c1)OCO3)O2` [Compound 4, 3′-methoxylicarin B] showed an apical-to-basolateral permeability (Papp A→B) at 90 min, 100 µM of less than 0.057 ×10⁻⁶ cm/s; an apparent permeability from basolateral to apical (Papp B→A) at 90 min, 100 µM of less than 0.055 ×10⁻⁶ cm/s; an apparent permeability (Papp) at 90 min, 100 µM not above 0.01 ×10⁻⁶ cm/s. Besides, the “permeability (in words)” value in data set [3] is “very poor permeability”.
Taken in the same sequence, the figures for `C/C=C/c1cc(OC)c2c(c1)[C@@H](C)[C@H](c1ccc3c(c1)OCO3)O2` [Compound 3, licarin B] were less than 0.062 ×10⁻⁶ cm/s, less than 0.06 ×10⁻⁶ cm/s, not above 0.01 ×10⁻⁶ cm/s and “very poor permeability”.
